Measured values published in the NIST ThermoML archive (doi:10.1021/je300775u).

Assay: xn = mol fraction of the nth substance listed
Settings: 101 kPa, Liquid; for speed of sound: Pulse-echo method; for mass density: Vibrating tube method

ClCBr [bromochloromethane] + ClC(Cl)(Cl)Br
Settings	mass density, 293.15 K [kg/m3]	mass density, 298.15 K [kg/m3]	mass density, 303.15 K [kg/m3]	mass density, 308.15 K [kg/m3]	mass density, 313.15 K [kg/m3]	speed of sound, 293.15 K [m/s]	speed of sound, 298.15 K [m/s]	speed of sound, 303.15 K [m/s]	speed of sound, 308.15 K [m/s]	speed of sound, 313.15 K [m/s]
x2 = 0	1933.23	1921.71	1910.15	1898.51	1886.82	1001.2	986.1	971	955.9	940.8
x2 = 0.052	1938.2	1926.72	1915.19	1903.6	1891.94	992.8	977.9	962.9	947.9	933
x2 = 0.103	1942.79	1931.34	1919.85	1908.3	1896.67	985.2	970.4	955.5	940.7	925.9
x2 = 0.1538	1947.34	1935.88	1924.46	1912.93	1901.44	978.4	963.6	948.9	934.2	919.1
x2 = 0.2031	1951.55	1940.16	1928.76	1917.27	1905.74	972.2	957.5	942.8	928.1	913.6
x2 = 0.2551	1956.05	1944.71	1933.31	1921.86	1910.36	966.1	951.6	937	922.6	908.1
x2 = 0.305	1960.19	1948.82	1937.49	1926.18	1914.72	960.7	946.3	931.8	917.3	903
x2 = 0.3522	1963.98	1952.66	1941.28	1929.99	1918.58	956.4	942.1	927.8	913.5	898.9
x2 = 0.4063	1968.54	1957.3	1946.02	1934.68	1923.3	950.8	936.7	922.4	908.2	894
x2 = 0.4553	1972.41	1961.2	1949.96	1938.65	1927.29	946.7	932.6	918.4	904.2	890.3
x2 = 0.5058	1976.4	1965.21	1954	1942.75	1931.42	942.7	928.6	914.5	900.5	886.5
x2 = 0.5665	1981.04	1969.89	1958.74	1947.52	1936.26	938.2	924.2	910.3	896.4	882.6
x2 = 0.6027	1983.79	1972.67	1961.52	1950.31	1939.1	935.8	921.9	908	894.1	880.3
x2 = 0.6567	1987.81	1976.74	1965.63	1954.45	1943.26	932.3	918.5	904.7	891	877.2
x2 = 0.7046	1991.31	1980.21	1969.15	1958.12	1946.95	929.6	915.8	902	888.3	874.7
x2 = 0.7543	1994.91	1983.88	1972.83	1961.75	1950.61	926.9	913.2	899.5	885.9	872.3
x2 = 0.8025	1998.2	1987.2	1976.2	1965.14	1954.05	924.5	910.8	897.2	883.7	870.2
x2 = 0.8516	2001.94	1990.96	1979.93	1968.92	1957.85	922.3	908.7	895.1	881.6	868.3
x2 = 0.8996	2005.35	1994.38	1983.39	1972.42	1961.38	920.3	906.8	893.3	879.9	866.5
x2 = 0.9228	2007.14	1996.17	1985.15	1974.22	1963.19	919.8	906.3	892.9	879.4	865.9

ClC(Cl)(Cl)Br [bromotrichloromethane] + BrCBr
Settings	mass density, 293.15 K [kg/m3]	mass density, 298.15 K [kg/m3]	mass density, 303.15 K [kg/m3]	mass density, 308.15 K [kg/m3]	mass density, 313.15 K [kg/m3]	speed of sound, 293.15 K [m/s]	speed of sound, 298.15 K [m/s]	speed of sound, 303.15 K [m/s]	speed of sound, 308.15 K [m/s]	speed of sound, 313.15 K [m/s]
x1 = 0.0506	2455.57	2442.67	2429.69	2416.74	2403.73	957	944.4	931.7	919.1	906.4
x1 = 0.0993	2424.17	2411.4	2398.59	2385.75	2372.87	953	940.3	927.6	914.8	902.2
x1 = 0.1491	2392.98	2380.34	2367.61	2354.94	2342.21	948.9	936.2	923.4	910.7	898.1
x1 = 0.1991	2363.17	2350.66	2338.13	2325.48	2312.93	945.3	932.6	919.8	907.1	894.4
x1 = 0.2473	2335.59	2323.21	2310.8	2298.33	2285.84	942.1	929.3	916.5	903.7	891
x1 = 0.2986	2307.34	2295.08	2282.77	2270.45	2258.08	939.1	926.2	913.2	900.4	887.7
x1 = 0.3465	2281.89	2269.75	2257.58	2245.37	2233.11	936.3	923.3	910.5	897.6	884.8
x1 = 0.3979	2255.64	2243.64	2231.57	2219.48	2207.34	933.6	920.7	907.7	894.8	882
x1 = 0.4468	2231.41	2219.49	2207.52	2195.5	2183.5	931.3	918.3	905.3	892.4	879.5
x1 = 0.4967	2207.74	2195.91	2184.02	2172.16	2160.25	929.1	916.1	903.1	890.1	877.1
x1 = 0.5462	2185.38	2173.66	2161.9	2150.12	2138.31	927.2	914.1	901.1	888	875.1
x1 = 0.5975	2162.89	2151.29	2139.5	2128	2116.3	925.3	912.2	899.1	886.1	873.1
x1 = 0.6479	2141.49	2130.01	2118.46	2106.9	2095.25	923.7	910.6	897.4	884.4	871.4
x1 = 0.6947	2122.35	2110.96	2099.49	2087.96	2076.47	922.4	909.2	896	882.8	869.9
x1 = 0.7469	2101.9	2090.59	2079.21	2067.83	2056.41	921	907.7	894.5	881.4	868.4
x1 = 0.7959	2083.33	2072.08	2060.79	2049.47	2038.17	919.9	906.6	893.4	880.2	867.1
x1 = 0.8494	2063.55	2052.39	2041.21	2030.02	2018.79	918.8	905.5	892.2	879	865.9
x1 = 0.898	2046.2	2035.13	2024.04	2012.93	2001.78	918	904.6	891.3	878.1	865
x1 = 0.9469	2029.71	2018.65	2007.69	1996.65	1985.57	917.4	904	890.6	877.3	864.1
x1 = 1	2013.06	2002.14	1991.2	1980.24	1969.25	917.1	903.6	890.2	876.8	863.6
